These are literature values, as cited in US7919499B2, “Naltrexone long acting formulations and methods of use” (Alkermes, Inc., priority 2004, dated 2011).

Molecules are shown by their SMILES. Like-named read-outs stand apart in the source and are kept apart here.

The data set concerns patients with alcohol dependence. As to conditions: oral vs placebo; for Risk difference as % reduction, relapse to heavy drinking / Risk difference (95% CI), relapse to heavy drinking: Hopkins meta-analysis; for Risk difference (95% CI), relapse to heavy drinking: nine studies, fixed effects model.
Where [1] appears, read: Bouza et al, short term studies (≦12 weeks), listed as Oral Naltrexone.
[2] abbreviates: Cochrane Review, 12 weeks, listed as Oral Naltrexone.

Regarding `O=C1CC[C@@]2(O)[C@H]3Cc4ccc(O)c5c4[C@@]2(CCN3CC2CC2)[C@H]1O5` [oral naltrexone, naltrexone], the “Risk difference as % reduction, relapse to heavy drinking” value is 13% and the “Risk difference (95% CI), relapse to heavy drinking” value is given as 0.13. Besides, where the note is “Bouza et al, short term studies (≦12 weeks)”, the “Decrease of odds of relapsing to heavy drinking relative to placebo” value is 38%. Under setting [1], the “Decrease of odds of relapsing to heavy drinking relative to placebo” value is “(38% reduction)” and the “Odds ratio (95% CI), relapse to heavy drinking” value is recorded as 0.62 (0.52, 0.75). Also, the “Decrease of relapse rate relative to placebo” value (Cochrane Review, 12 weeks) is on record as 36%. For the same compound, under setting [2], the “Decrease of relapse rate relative to placebo” value was “(36% reduction)” and the “Relative risk (95% CI), relapse to heavy drinking” value is listed as 0.64 (0.51, 0.82). Where the note is “listed as Oral Naltrexone”, the “Risk difference (95% CI), relapse to heavy drinking” value was 0.13 (0.08, 0.17) and the “Risk difference as % reduction, relapse to heavy drinking” value was “(13% reduction)”.
